Measured values published in US10457676B2, “Capsazepine analogs for the treatment of cancer and other proliferative diseases” (THE BOARD OF REGENTS OF THE UNIVERSITY OF TEXAS SYSTEM, priority 2014, dated 2019).

Legend:
[1] = test system: SCC4 xenografts; assay: OSCC mouse xenograft model, intra-tumor injection; assay type: in vivo, athymic nude mice
Description: All studies were approved by the UTHSCSA Institutional Animal Care and Use Committee. Six week-old female athymic nude mice (Harlan, Indianapolis, Ind.) were used in a laminar air-flow cabinet under pathogen-free conditions. They were provided with a 12 h light/dark schedule at controlled temperature and humidity with food and water ad libitum. Mice were acclimated for one week prior to study initiation.
Mice were injected subcutaneously in the right flank with 2×10^6 SCC4 cells in 0.1 mL of sterile PBS. Four weeks post-inoculation, tumors grew to an average volume of 150 mm^3. Mice were stratified into two experimental groups (n=5 per group), which received the following treatments as intra-tumor injections: group A, vehicle control; group B, capsazepine or capsazepine derivative (analog) treatment. Treatments were repeated every other day for a total of 14 days.
Capsazepine and novel capsazepine analogs stock solutions (20 μg/μL, 100% Ethanol) were diluted to 5% Ethanol in sterile saline generating a final concentration of 1 μg/μL. SCC4 xenografts received intra-tumor injections of 40 μg CIDD24 or 40 μg capsazepine every other day (FIG. 4) for two weeks. In a second study SCC4 xenografts were injected with 80 μg CIDD24 or 80 μg CIDD111 every other day for two weeks (FIG. 5). Control xenografts received intra-tumor injections with vehicle control (5% Ethanol in sterile saline). Mice were monitored daily for tumor growth (using digital calipers), cachexia, and weight loss. Body temperature was monitored for 24 h following treatments. Tumor volumes were calculated by the elliptical formula: ½(Length×Width^2) (Jensen, et al., 2008).
Statistical analysis was performed using GraphPad Prism4 (San Diego, Calif.). Experiments were performed in triplicate and results are represented as means±SD except when indicated. Cytotoxicity assays of cell viability were analyzed by one-way ANOVA and Bonferroni's post hoc test (n=4). Statistical analyses of tumor growth were made using analysis of variance with repeated measures with Bonferroni's post hoc test (n=5). A p value less than 0.05 was considered statistically significant.

[2] = test system: HSC3 cells; assay: Cell viability with antioxidant N-acetyl-cysteine (reversal, ROS mechanism); assay type: cell-based, human; conditions: 10 μM, 24 hours
Description: OSCC cell lines, SCC4, SCC25, and HSC3 were derived from human primary tongue OSCC. SCC4 and SCC25 cells were obtained from ATCC (Rockville, Md.). HSC3 cells were kindly provided by Dr. Brian Schmidt (NYU) (Saghafi, et al., 2011). Breast cancer cells (MDA231), Prostate cancer cells (PC3), and Non-Small Cell Lung Cancer cells (H460) were obtained from ATCC (Rockville, Md.). Cells were maintained in DMEM (Gibco, Carlsbad, Calif.) containing 10% FBS at 37° C. in 5% CO2. Immortalized keratinocytes (OKF6-TERT2; Harvard Medical School Cell Culture Core Collection, Cambridge, Mass.) were used as control epithelial cells.
Cytotoxicity was assessed using the Cell Titer 96® Aqueous Non-Radioactive Cell Proliferation Assay (Promega, Madison, Wis.) according to manufacturer's protocol. Absorbance values of test groups were normalized against controls (n=4).
ROS levels in OSCC cell lines were examined by flow cytometry using 2,7-dichlorodihydrofluorescein diacetate (DCF-DA; Sigma-Aldrich, St. Louis, Mo.). Cells (3×10^5) were plated in 12-well plates and incubated for 30 min with DCF-DA at 37° C. then treated with 30 μM of the appropriate capsazepine derivative or capsazepine using phenol free media with and without 10 mM NAC. Treated cells were incubated for 1 h at 37° C., harvested, washed twice, and analyzed by FACS.

[3] = test system: oral cancer tumors; conditions: direct injection into tumors; cited from earlier work
[4] = SCC4 tumors, 40 μg intra-tumor every other day for two weeks, n=5
[5] = SCC4 tumors, 80 μg every other day for two weeks, p<0.001

| SMILES | reduction in tumor growth compared to vehicle control [1, 4] | cell growth inhibition with 10 mM N-acetyl-cysteine added [2] | reduction in tumor growth compared to vehicle control [1, 5] | also measured |
| --- | --- | --- | --- | --- |
| O=C(NCCc1ccc(Cl)cc1)N1CCc2cc(O)c(O)cc2C1 [CIDD25, N-[2-(4-chlorophenyl)ethyl]-6,7-dihydroxy-1,2,3,4-tetrahydroisoquinoline-2-carboxamide] | 50% |  |  |  |
| Oc1cc2c(cc1O)CN(C(=S)NCCc1ccc(Cl)cc1)CCC2 [capsazepine] | ~50% | reversed |  | tumor volume after administration [3]: reduction of tumor volume |
| Oc1cc2c(cc1O)C(c1ccccc1)N(C(=S)NCCc1ccc(Cl)cc1)CC2 (centres unmarked) [CIDD 99, N-[2-(4-chlorophenyl)ethyl]-6,7-dihydroxy-1-phenyl-1,2,3,4-tetrahydroisoquinoline-2-carbothioamide] |  | reversed |  |  |
| Oc1cc2c(cc1O)CN(C(=S)NCCc1ccc(Cl)cc1)CC2 [CIDD24, N-[2-(4-chlorophenyl)ethyl]-6,7-dihydroxy-1,2,3,4-tetrahydroisoquinoline-2-carbothioamide] | 80% |  | significant reduction in tumor growth | tumor volume % change, difference between CIDD 24 and capsazepine ([1]; SCC4 xenografts, 40 μg (1 μg/μl), 10 day period, #=p<0.05): statistically significant difference |
| Oc1cc2c(cc1O)C(c1ccccc1)N(C(=S)NCc1ccccc1)CC2 (centres unmarked) [CIDD111, N-benzyl-6,7-dihydroxy-1-phenyl-1,2,3,4-tetrahydroisoquinoline-2-carbothioamide] |  |  | significant reduction in tumor growth | efficacy compared with CIDD24 ([1]; SCC4 tumors, 80 μg every other day for two weeks, no significant difference in potency): slightly more effective than CIDD24 |
| Oc1cc2c(cc1O)C(c1ccccc1)N(C(=S)NCCc1ccc(Cl)cc1Cl)CC2 (centres unmarked) [CIDD 118, N-[2-(2,4-dichlorophenyl)ethyl]-6,7-dihydroxy-1-phenyl-1,2,3,4-tetrahydroisoquinoline-2-carbothioamide] |  | reversed |  |  |
